ChEMBL document CHEMBL4033761 (ACS Med Chem Lett, 2017)
≈ marks a conversion by molar mass, not a printed value.

Columns and labels:
[1] = Fraction unbound in human plasma
hERG (KCNH2) = hERG (KCNH2) (Homo sapiens, UniProt Q12809); test: in vitro
Description: Inhibition of human ERG at 11 uM by single shot IonWork assay relative to control

[2] = Distribution coefficient, log D of compound at pH 7.4; conditions: octanol/water
[3] = Solubility of compound in DMSO
[4] = Intrinsic clearance in human liver microsomes
[5] = Apparent permeability of the compound across apical side to basolateral side in human Caco2 cells; conditions: Caco-2
[6] = Dissociation constant, pKa of the compound by UV absorbance method; format: physicochemical
[7] = Dissociation constant, pKa of the compound by potentiometric titretion method

hERG (KCNH2), sequence (Q12809 whole entry): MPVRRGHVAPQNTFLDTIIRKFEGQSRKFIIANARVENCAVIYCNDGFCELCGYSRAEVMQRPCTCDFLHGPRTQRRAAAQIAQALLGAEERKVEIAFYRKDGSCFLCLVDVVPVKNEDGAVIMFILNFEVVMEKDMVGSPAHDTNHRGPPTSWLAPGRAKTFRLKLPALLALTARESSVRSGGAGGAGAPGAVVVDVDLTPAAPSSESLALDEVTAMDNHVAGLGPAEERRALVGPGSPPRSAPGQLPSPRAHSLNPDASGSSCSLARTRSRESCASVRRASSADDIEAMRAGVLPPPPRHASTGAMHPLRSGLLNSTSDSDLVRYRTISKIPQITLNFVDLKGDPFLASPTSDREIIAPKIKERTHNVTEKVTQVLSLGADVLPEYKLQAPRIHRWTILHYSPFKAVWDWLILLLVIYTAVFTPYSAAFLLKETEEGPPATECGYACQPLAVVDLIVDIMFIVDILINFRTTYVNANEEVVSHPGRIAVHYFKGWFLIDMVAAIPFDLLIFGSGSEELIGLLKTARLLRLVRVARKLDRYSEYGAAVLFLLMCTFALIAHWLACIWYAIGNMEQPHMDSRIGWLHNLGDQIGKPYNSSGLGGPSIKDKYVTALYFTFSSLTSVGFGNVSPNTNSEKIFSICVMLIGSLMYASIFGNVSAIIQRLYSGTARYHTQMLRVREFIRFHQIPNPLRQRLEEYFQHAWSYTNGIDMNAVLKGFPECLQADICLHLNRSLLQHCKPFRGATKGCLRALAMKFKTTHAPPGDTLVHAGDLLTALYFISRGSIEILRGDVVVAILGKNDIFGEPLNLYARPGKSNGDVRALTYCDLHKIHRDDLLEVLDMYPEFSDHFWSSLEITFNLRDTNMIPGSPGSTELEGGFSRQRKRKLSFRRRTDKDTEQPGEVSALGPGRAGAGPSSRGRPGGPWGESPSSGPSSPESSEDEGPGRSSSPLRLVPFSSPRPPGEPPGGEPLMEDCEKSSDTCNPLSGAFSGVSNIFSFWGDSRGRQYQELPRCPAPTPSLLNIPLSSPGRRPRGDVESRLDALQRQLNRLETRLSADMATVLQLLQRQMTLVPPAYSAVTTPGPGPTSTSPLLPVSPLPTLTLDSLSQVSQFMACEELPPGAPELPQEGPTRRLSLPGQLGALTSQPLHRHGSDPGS

SMILES	fraction unbound [1]	inhibition at 11 µM (hERG (KCNH2))	logD [2]	solubility [3]	microsomal CLint ([4]; liver microsomes)	Papp A→B [5]	pKa [6]	pKa [7]	microsomal CLint ([4]; microsomes)
O=S1(=O)N=C(NCc2ccccc2)c2ccccc21	0.2	2.8%	1.9	89 µM (≈ 24.2 µg/mL)	< 3 µL/min/mg	–	–	–	–
CCN1C(=O)c2ccccc2S1(=N)=O (stereo not drawn)	0.83	-4.7%	0.7	512 µM (≈ 108 µg/mL)	< 3 µL/min/mg	92 ×10⁻⁶ cm/s	8.9	–	–
CCN=S1(=O)NC(=O)c2ccccc21 (stereo not drawn)	0.41	1.3%	0.1	947 µM (≈ 199 µg/mL)	< 3 µL/min/mg	26.8 ×10⁻⁶ cm/s	6.9	–	–
NC1=NS(=O)(=O)c2ccccc21	0.48	–	0.2	798 µM (≈ 145 µg/mL)	< 3 µL/min/mg	7.39 ×10⁻⁶ cm/s	11.4	–	–
O=C1N=S(=O)(Nc2ccccc2)c2ccccc21 (stereo not drawn)	0.088	5.2%	-1.1	958 µM (≈ 247 µg/mL)	< 3 µL/min/mg	6.57 ×10⁻⁶ cm/s	4.1	–	–
N=S1(=O)c2ccccc2C(=O)N1Cc1ccccc1 (stereo not drawn)	–	-7.4%	1.8	946 µM (≈ 258 µg/mL)	19.2 µL/min/mg	84.7 ×10⁻⁶ cm/s	8.7	–	–
NS1(=O)=NC(=O)c2ccccc21 (stereo not drawn)	0.4	–	–	–	< 3 µL/min/mg	–	5.7	–	–
CCNC1=NS(=O)(=O)c2ccccc21	0.56	18.4%	0.7	971 µM (≈ 204 µg/mL)	< 3 µL/min/mg	29.3 ×10⁻⁶ cm/s	11.7	–	–
CCN1C(=O)c2ccccc2S1(=O)=O	–	3.6%	–	< 13 µM	–	125 ×10⁻⁶ cm/s	–	–	–
O=S1(=O)N=C(Nc2ccccc2)c2ccccc21	0.16	11.1%	2	7 µM (≈ 1.81 µg/mL)	85.4 µL/min/mg	–	–	–	–
O=C1N=S(=O)(NCc2ccccc2)c2ccccc21 (stereo not drawn)	0.12	-1.9%	0.8	869 µM (≈ 237 µg/mL)	< 3 µL/min/mg	70.7 ×10⁻⁶ cm/s	6.5	–	–
C[C@H](N[S@]1(=O)=NC(=O)c2ccccc21)c1ccccc1	0.014	–	1.4	13 µM (≈ 3.72 µg/mL)	< 3 µL/min/mg	63 ×10⁻⁶ cm/s	6.62	–	–
N=S1(=O)c2ccccc2C(=O)N1c1ccccc1 (stereo not drawn)	–	-25.6%	1.3	578 µM (≈ 149 µg/mL)	93.5 µL/min/mg	–	8.3	–	–
O=C1c2ccccc2S(=O)(=O)N1Cc1ccccc1	–	–	-1.8	< 0.01 µM	–	–	–	–	–
C[C@H](NS1(=O)=NC(=O)c2ccccc21)c1ccccc1 (single isomer, unassigned)	0.089	–	0.8	107 µM (≈ 30.6 µg/mL)	< 3 µL/min/mg	47 ×10⁻⁶ cm/s	6.55	–	–
O=C1NS(=O)(=O)c2ccccc21 [SACCHARIN]	0.37	–	< -0.1	838 µM (≈ 154 µg/mL)	–	< 0.75 ×10⁻⁶ cm/s	–	3.1	< 3 µL/min/mg
